Laboratory results as given in patent US8722626B2, “Method for controlling fibrosis and other pathological deposits in tissues comprising administering a GHRP-6 composition” (Centro de Ingenieria Genetica y Biotecnologia, priority 2006, dated 2014).
Marks after values point to notes of the source that are not given here.

Experiments:
[1] = tested on: renal fibrosis in rats (Doxorubicin); assay: Reverting renal fibrosis induced by Doxorubicin in rats (Example 3); type: in vivo, rat; settings: for GOT serum level (integrity of the hepatic parenchyma) / GPT serum level (integrity of the hepatic parenchyma) / OH—P Content (hydroxiproline) in kidneys / Grado 0 (null) fibrosis in kidneys, numbers of animals per group / Grado 1 (moderate) fibrosis in kidneys, numbers of animals per group / Grado 2 (intense) fibrosis in kidneys, numbers of animals per group / Grado 3 (very intense) fibrosis in kidneys, numbers of animals per group: 4 weeks; for GOT serum level (integrity of the hepatic parenchyma) / GPT serum level (integrity of the hepatic parenchyma) / OH—P Content (hydroxiproline) in kidneys: end of treatment; for OH—P Content (hydroxiproline) in kidneys: 20 fragments per group; for Grado 0 (null) fibrosis in kidneys, numbers of animals per group / Grado 1 (moderate) fibrosis in kidneys, numbers of animals per group / Grado 2 (intense) fibrosis in kidneys, numbers of animals per group / Grado 3 (very intense) fibrosis in kidneys, numbers of animals per group: N = 20; for Catalase (oxidative stress marker) / HPT (oxidative stress marker) / MDA (oxidative stress marker) / SODt (oxidative stress marker): renal tissue samples, end of the fourth week of treatment
Description: This experiment was conducted to evaluate the effect of the pharmaceutical composition containing GHRP-6 in reverting renal fibrosis in rats. In this case, the process was induced by sustained administration of the anti-neoplasic agent Doxorubicin (DX) at a 2.5 mg/kg dosage twice a week during 8 weeks. […] This point forward, DX administration was interrupted and the treatment with the pharmaceutical composition containing the GHRP-6 was started. The treatment was applied once daily at 100 and 400 μg/kg in a volume of 1 ml by the intraperitoneal route, during 4 weeks. The animals remaining were randomly distributed into three experimental groups of 20 rats each: (1) Control placebo group, receiving physiological saline solution, (2) Group receiving the GHRP-6 at a 100 μg/kg dosage, and (3) Group receiving the GHRP-6 at a 400 μg/kg dosage. When treatments concluded, the animals were sacrificed by anesthesia overdose and livers, kidneys, lungs and blood sera were collected. Tissue fragments were fixed in formalin neutral and processed by hematoxylin/eosin staining, or by Masson's trichromic staining, to evaluate the general damage and the severity of fibrotic indurations. Other fragments were stored at −70° C. until processing to determine the content of hydroxiproline by acid hydrolysis in 1N HCl, and also the levels of creatinine and oxidative stress markers. Biochemical determinations were carried out by calculating the total protein content by the Bradford's method.

[2] = tested on: pulmonary fibrosis in rats (Bleomycin); assay: Control of pulmonary fibrosis induced by Bleomycin in rats (Example 4); type: in vivo, rat; settings: 4 weeks; for Grade 0 pulmonary fibrosis (no evidences of fibrosis), animals per group / Grade 1 pulmonary fibrosis (predominantly vascular), animals per group / Grade 2 pulmonary fibrosis (additional peri-bronchial compromise), animals per group / Grade 3 pulmonary fibrosis (also interalveolar septum), animals per group: N = 15; for OH—P content (hydroxiproline) in lungs: end of treatment, 15 fragments per group
Description: In this case, the process as induced by sustained administration of the anti-neoplasic agent Bleomycin (Ble) at a 2.5 U/kg dosage twice a week during 4 weeks. […] This point forward, the administration of Ble was suspended and treatment with the pharmaceutical composition containing the GHRP-6 was started. The treatment was applied once daily, at 100 and 400 μg/kg in a 1 ml volume by intraperitoneal route during 4 weeks. […] When treatments concluded, the animals were sacrificed by anesthesia overdose and lungs and blood serum were collected. Tissue fragments were fixed in formalin neutral and processed by hematoxylin/eosin staining, or by Masson's trichromic staining, to evaluate the general damage and the severity of fibrotic indurations. Other fragments of lung tissues were stored at −70° C. until processing to determine the content of hydroxiproline by acid hydrolysis in 1N HCl, and also the […] levels of redox metabolism markers. Biochemical determinations were carried out by calculating the total protein content by the Bradford's method. Histological evaluation of the fibro-proliferative reaction in lungs includes the process of peri-vascular, peri-bronchial and septal fibrosis. The overall grade of pulmonary fibrosis was established according to the extension and intensity of the process in these three segments, to determine the percent of animals affected or unaffected at the end of the treatment with the GHRP-6. The numbers of animals in every group with fibrotic lungs according to the severity of fibrosis are:
Grade 0—No evidences of fibrosis or only thin and diffuse fiber or areolar material foci present, without respiratory compromise.
Grade 1—Fibrosis predominantly vascular in more than 75% of arterioles and capillaries.
Grade 2—Fibrosis predominantly vascular in more than 75% of arterioles and capillaries, with additional peri-bronchial compromise.
Grade 3—Fibrosis predominantly vascular in more than 75% of arterioles and capillaries, with additional peri-bronchial compromise. Fibrotic material is also detected in the interalveolar septum.

[3] = tested on: male APP transgenic mice expressing the beta-amiloid precursor protein; assay: Beta-amiloid protein deposition in brain of APP transgenic mice (Example 5); type: in vivo, mouse; parameters: SODt (oxidative stress marker) / Catalase (oxidative stress marker) / HPT (oxidative stress marker) / MDA (oxidative stress marker): unit not given here; settings: 8 weeks; for Catalase (oxidative stress marker) / HPT (oxidative stress marker) / MDA (oxidative stress marker) / SODt (oxidative stress marker): brain tissues; for No. of deposits positive to Congo Red / No. of deposits positive to beta-amiloid / Size of amiloid plaques: brain
Description: This study was conducted to evaluate the influence of the long-term administration (8 weeks) of the GHRP-6 on the biochemical and morphological markers in the brain of transgenic mice expressing the beta-amiloid precursor protein, these markers also indicating the progression of the central nervous system damage. For the present study, 20-25 g in body weight male APP transgenic mice were acquired, expressing the beta-amiloid precursor protein. Animals (N=30) were randomly distributed in:
Placebo group—Physiological saline solution 0.9%.
Dosage I group—GHRP-6 at 50 μg/kg of body weight in saline solution.
Dosage II group—GRHP-6 at 100 μg/kg of body weight in saline solution.
Treatments were applied by the intraperitoneal route in 1 ml, five days a week during 8 weeks, with animals receiving 40 administrations of GHRP-6. We knew from previous exploratory pilot studies that this period of time was sufficient for improving cognitive and motor skills in animals under stress.
After 8 weeks of treatment, mice were sacrificed by anesthesia overdose, and perfused in situ with saline solution. Encephala were extracted, one encephalon was frozen in dry-ice and the other was fixed in 4% para-formaldehyde neutral. Samples were cryo-sliced at 10 μm and slices were stained with hematoxylin/eosin, Congo Red, or incubated with an antibody specific for the beta-amiloid protein. Morphometric procedures were carried out by microscopic imaging capture by a camera connected to the microscope, and the images were analyzed with the DIGIPAT software.
The number of fibrillar deposits of the beta-amiloid protein positive to Congo Red staining.
The number of foci immunoreactive to the antibody that recognizes the beta-amiloid protein.
Size of the beta-amiloid plaques in the brain, recognized at 200× and 400× magnifications (μm^2).
Brain concentration of myo-inositol as indicator of aging and brain metabolism deterioration (μmol/g of tissue).

[4] = Dosage I: 100 μg/kg i.p. once daily
[5] = Dosage II: 400 μg/kg i.p. once daily
[6] = Dosis I: 100 μg/kg i.p. once daily
[7] = Dosis II: 400 μg/kg i.p. once daily
[8] = Dosage I: 50 μg/kg i.p. five days a week
[9] = Dosage II: 100 μg/kg i.p. five days a week

## GHRP-6
[1]; [4]
  GOT serum level (integrity of the hepatic parenchyma): 64.82 ± 23.71 IU/l
  GPT serum level (integrity of the hepatic parenchyma): 81.0 ± 10.25 IU/l
  OH—P Content (hydroxiproline) in kidneys: 46.15 ± 2.73 μg/g of total proteins
[1]; [5]
  GOT serum level (integrity of the hepatic parenchyma): 26.22 ± 4.1 IU/l
  GPT serum level (integrity of the hepatic parenchyma): 28.25 ± 5.66 IU/l
  OH—P Content (hydroxiproline) in kidneys: 8.66 ± 1.02 μg/g of total proteins
[1]; [6]
  Grado 0 (null) fibrosis in kidneys, numbers of animals per group: 6
  Grado 1 (moderate) fibrosis in kidneys, numbers of animals per group: 9
  Grado 2 (intense) fibrosis in kidneys, numbers of animals per group: 5
  Grado 3 (very intense) fibrosis in kidneys, numbers of animals per group: 0
[1]; [7]
  Grado 0 (null) fibrosis in kidneys, numbers of animals per group: 5
  Grado 1 (moderate) fibrosis in kidneys, numbers of animals per group: 15*
  Grado 2 (intense) fibrosis in kidneys, numbers of animals per group: 0
  Grado 3 (very intense) fibrosis in kidneys, numbers of animals per group: 0
[1]; FIGURE, 100 and 400 μg/kg vs. placebo, highest difference at 400 μg/kg
  Percent of animals with renal fibrosis compromise per group at the end of the treatment: dosage-dependent effect
[1]; Dosage I: 100 μg/kg
  Catalase (oxidative stress marker): 126.02 ± 12.23
  HPT (oxidative stress marker): 73.2 ± 6.92
  MDA (oxidative stress marker): 0.56 ± 2.23
  SODt (oxidative stress marker): 665.08 ± 28.42
[1]; Dosage II: 400 μg/kg
  Catalase (oxidative stress marker): 45.38 ± 8.27
  HPT (oxidative stress marker): 16.14 ± 3.67
  MDA (oxidative stress marker): 0.087 ± 0.02
  SODt (oxidative stress marker): 1287.64 ± 112.63
[2]; [4]
  Grade 0 pulmonary fibrosis (no evidences of fibrosis), animals per group: 3
  Grade 1 pulmonary fibrosis (predominantly vascular), animals per group: 10
  Grade 2 pulmonary fibrosis (additional peri-bronchial compromise), animals per group: 2
  Grade 3 pulmonary fibrosis (also interalveolar septum), animals per group: 0
  OH—P content (hydroxiproline) in lungs: 91.24 ± 16.84 μg/g of total proteins
[2]; [5]
  Grade 0 pulmonary fibrosis (no evidences of fibrosis), animals per group: 8
  Grade 1 pulmonary fibrosis (predominantly vascular), animals per group: 7
  Grade 2 pulmonary fibrosis (additional peri-bronchial compromise), animals per group: 0
  Grade 3 pulmonary fibrosis (also interalveolar septum), animals per group: 0
  OH—P content (hydroxiproline) in lungs: 12.75 ± 3.61 μg/g of total proteins
[2]; dosage II: 400 μg/kg i.p. once daily
  Animals classified as grade 0 (pulmonary fibrosis): > 50%
[3]; [8]
  Myo-inositol concentration in the brain.: 49.35 ± 10 μmol/g of tissue
  No. of deposits positive to Congo Red: 21.78 ± 6.57
  No. of deposits positive to beta-amiloid: 15.11 ± 3.27
  Size of amiloid plaques: 15.51 ± 6.44 μm^2
[3]; [9]
  Myo-inositol concentration in the brain.: 27.45 ± 8.61 μmol/g of tissue
  No. of deposits positive to Congo Red: 14.52 ± 4.18
  No. of deposits positive to beta-amiloid: 13.58 ± 4.61
  Size of amiloid plaques: 10.88 ± 4.1 μm^2
[3]; Dosage I: 50 μg/kg i.p.
  Catalase (oxidative stress marker): 81.6 ± 15.25
  HPT (oxidative stress marker): 54.3 ± 11.87
  MDA (oxidative stress marker): 0.77 ± 1.56
  SODt (oxidative stress marker): 611.17 ± 44.79
[3]; Dosage II: 100 μg/kg i.p.
  Catalase (oxidative stress marker): 60.18 ± 13.67
  HPT (oxidative stress marker): 21.25 ± 5.44
  MDA (oxidative stress marker): 0.4 ± 0.02
  SODt (oxidative stress marker): 863.22 ± 50.3
